In patent US9987247B2, “Drugs for treating diseases of cervical and/or lumbar vertebrae” (priority 2013, dated 2018):

Tests used:
[1] = system: cervical disc herniation / cervical disease; assay: Treatment of patients with cervical disc herniation / cervical disease with oral benzbromarone (case reports); assay type: in vivo, human
From the text: The clinical effect criteria of the drug of the present application for treating cervical spondylosis can also be evaluated 2 weeks after treatment.

[2] = system: lumbar disc herniation; assay: Treatment of patients with lumbar disc herniation with oral benzbromarone (case reports); assay type: in vivo, human
[3] = Patient A, 100 mg first day then 50 mg once a day, after five days
[4] = Patient A, 100 mg first day then 50 mg once a day, after two days
[5] = Patient B, 50 mg once a day, after seven days
[6] = Patient C, 12.5 mg once a day, after continuous administration for six days
[7] = Patient H, 100 mg once a day plus sodium bicarbonate, after six days
[8] = Patient L, 100 mg once a day plus sodium bicarbonate, after seven days

SMILES: CCc1oc2ccccc2c1C(=O)c1cc(Br)c(O)c(Br)c1 [benzbromarone]
- symptoms in pain, upper limbs numbness and dizziness ([1]; Patient E, cervical intervertebral disc herniation, about 50 mg once a day, no other treatment, six days later): relieved
- pain and dizziness symptoms ([1]; Patient G, cervical disease, about 25 mg once a day, neck massage first three days, eight days later): disappeared
- Fenz signs ([1]; Patient G, about 25 mg once a day, eight days later, positive before treatment): negative
- dizziness symptoms ([1]; Patient I, about 55 kg, cervical disc herniation, capsules 50 mg twice a day plus sodium bicarbonate tablets 0.5 g three times a day, after three days): reduced significantly
- pain and dizziness symptoms ([1]; Patient I, capsules 50 mg twice a day plus sodium bicarbonate, after eight days): disappeared
- flexion neck rotation test ([1]; Patient I, capsules 50 mg twice a day plus sodium bicarbonate, after eight days, positive before treatment): negative
- recurrence ([1]; Patient I, within the next one months): no recurrence
- painful symptoms ([2]; Patient A, about 75 kg, once a day, 100 mg first day then 50 mg, after one day): lessened
- pain [2, 3]: basically disappeared
- walking [2, 3]: could walk properly
- ability to walk [2, 4]: able to walk
- painful symptoms [2, 4]: alleviated obviously
- recurrence of symptoms ([2]; Patient A, within the next six months): haven't occurred
- painful symptoms ([2]; Patient B, about 60 kg, 50 mg once a day, waist massage first two days, after two days): alleviated obviously
- ability to walk and work [2, 5]: able to walk and work
- pain during severe coughing [2, 5]: no perceptible pain
- waist pain [2, 5]: basically disappeared
- recurrence ([2]; Patient B, within the next three months): no recurrence
- pain ([2]; Patient C, 12.5 mg once a day, waist massage first two days, six days later): significantly lessened
- symptoms of pain [2, 6]: disappeared
- walking and ability to work [2, 6]: walked properly and was able to work
- Straight leg raising test ([2]; Patient C, 12.5 mg once a day, after continuous administration for six days, positive before treatment): negative
- recurrence ([2]; Patient C, within the next two months): no recurrence
- pain ([2]; Patient D, L4/5 protrusion, 50 mg once a day, no other treatment, three days later): significantly lessened
- walking, ability to work, pain ([2]; Patient D, 50 mg once a day, after six days): walked properly and was able to work without pain
- Straight leg raising test ([2]; Patient D, 50 mg once a day, after six days, positive before treatment): negative
- recurrence ([2]; Patient D, within the next three months): no recurrence
- pain ([2]; Patient F, about 25 mg once a day, waist massage first three days, three days later): significantly lessened
- walking ([2]; Patient F, about 25 mg once a day, after six days): walked properly
- ability to walk ([2]; Patient F, about 25 mg once a day, three days later): able to walk
- recurrence ([2]; Patient F, within the next two months): no recurrence
- pain ([2]; Patient H, about 62 kg, L3/4 protrusion, 100 mg once a day plus sodium bicarbonate tablets 0.5 g three times a day, two days later): significantly reduced
- pain when coughing [2, 7]: no pain was felt
- waist pain [2, 7]: basically disappeared
- walking and ability to work [2, 7]: could walk normally, and was able to work
- Straight leg raising test ([2]; Patient H, 100 mg once a day plus sodium bicarbonate, after six days, positive before treatment): negative
- recurrence ([2]; Patient H, within the next three months): No recurrence
- pain [2, 8]: basically disappeared
- walking and work ability [2, 8]: normal walking, work ability recovery
- Bragard test ([2]; Patient L, 100 mg once a day plus sodium bicarbonate, after seven days, positive before treatment): negative
- relapse ([2]; Patient L, during the following two months): no relapse
